Values after ≈ are worked out from the molar mass of the structure shown.
Key:
Staphylococcus aureus [1] = test: Antibacterial activity against Staphylococcus aureus RN4220 after 18 hrs by broth microdilution method; format: functional; conditions: RN4220, 18 h
[2] = target: T1, Peptide deformylase (Staphylococcus aureus) (UniProt P68826); test: (§1) Inhibition of Staphylococcus aureus peptide deformylase using N-formylmethionine-alanine-serine as substrate by spectrophotometry
T1 sequence (whole entry): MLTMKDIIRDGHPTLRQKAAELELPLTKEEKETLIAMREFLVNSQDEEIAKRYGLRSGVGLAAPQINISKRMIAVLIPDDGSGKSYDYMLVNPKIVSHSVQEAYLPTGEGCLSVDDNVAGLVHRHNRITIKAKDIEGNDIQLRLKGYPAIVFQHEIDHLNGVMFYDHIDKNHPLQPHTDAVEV

Peptide deformylase = target: T2, Peptide deformylase (Staphylococcus aureus, UniProt P68826); test: as §1
T2 sequence (P68826 whole entry): T1 sequence (whole entry)

Staphylococcus aureus [3] = test: Antibacterial activity against methicillin-resistant Staphylococcus aureus CCARM 3167 after 18 hrs by broth microdilution method; format: functional; conditions: CCARM 3167, 18 h
Staphylococcus aureus [4] = test: Antibacterial activity against quinolone-resistant Staphylococcus aureus CCARM 3505 after 18 hrs by broth microdilution method; format: functional; conditions: CCARM 3505, 18 h

Row | SMILES | MIC (Staphylococcus aureus [1]) [µg/mL] | inhibition [2] | IC50 (Peptide deformylase) [µM] | MIC (Staphylococcus aureus [3]) [µg/mL] | MIC (Staphylococcus aureus [4]) [µg/mL]
1 | Cc1c(O)c(O)c(O)c2c1CO[C@H]2[C@H]1OC(O)c2c(C)c(O)c(O)c(O)c21 (mixture of isomers) [FLAVIMYCIN A] | 32 | Dose-dependent effect | 35.8 | 32 | 32
2 | COCc1c(O)c(O)c(O)c2c1CO[C@H]2[C@H]1OC(O)c2c(C)c(O)c(O)c(O)c21 (mixture of isomers) [FLAVIMYCIN B] | 64 | Dose-dependent effect | 100 | 64 | 64
3 | CCCCC[C@H](CC(=O)NO)C(=O)N[C@H](C(=O)N1CCC[C@H]1CO)C(C)C [ACTINONIN] | 4 (≈ 10.4 µM) | – | 0.02 | 4 (≈ 10.4 µM) | 4 (≈ 10.4 µM)

Reference: ChEMBL document CHEMBL2010710, “Flavimycins A and B, dimeric 1,3-dihydroisobenzofurans with peptide deformylase inhibitory activity from Aspergillus flavipes” (J Nat Prod, 2012)
